We go through 13 compounds from patent US10112918B2, “15-oxospiramilactone derivatives, preparation method and uses thereof” (Kunming Institute of Botany, The Chinese Academy of Sciences, priority 2013, dated 2018).

pIC50: −log10 of the molar value. Where two headings read alike, the source gives them in different places.

What all share (format): cell-based
Test [1] concerns SW-480 (human colon cancer cells). In words: MTT inhibition of tumor cell growth, SW-480. Here is the method:
(§1) 1. Inoculating cells: the culture medium DMEM or RMPI1640 containing 10% fetal bovine serum was used to prepare a single cell suspension, and the cell suspension was inoculated to a 96-well plate at 5000-10000 cells per well (100 μl for each well); Adherent cells were inoculated and cultured for 12 h in advance. HL-60 (human promyelocytic leukemia cells), SMMC-7721 (human hepatoma cells), A-549 (Human lung adenocarcinoma cells), MCF-7 (human breast cancer cells), SW-480 (human colon cancer cells) were purchased from the Cell Bank of the Chinese Academy of Sciences, Shanghai.
(§2) 2. The solution of the compound to be tested (40 μM for primary screening; 5 concentrations were set for gradient re-screening for the compounds which achieve about 50% inhibition of tumor cell growth at 40 μM) was added, the final volume of each well was 200 μl, and triplicate wells were set for each test.
(§3) 3. Coloration: After culturing at 37° C. for 48 h, MTT solution (20 μl) was added to each well. After incubation for another 4 h, the culture was stopped. The supernatant in each well was pipetted and discarded, and 200 μl SDS solution (10%) was added to each well. Incubation was performed overnight (at 37° C.), to completely dissolve the crystal.
(§4) 4. Colorimetric assay: ELISA Reader (Bio-Rad 680) was used to obtain the light absorption for each well at a wavelength of 595 nm, the results were recorded. A cell growth curve was plotted with the concentration as abscissa and the cell survival percentage as ordinate. The two-point method (Reed and Muench method) was used to calculate the IC50 of the compound.

For test [2], the system named is MCF-7 (human breast cancer cells). Briefly: MTT inhibition of tumor cell growth, MCF-7. Here is the method:
as §1, §2, §3, §4

In test [3] the test system is A-549 (Human lung adenocarcinoma cells). In words: MTT inhibition of tumor cell growth, A-549. Here is the method:
as §1, §2, §3, §4

Test [4] relates to HL-60 (human promyelocytic leukemia cells). In words: MTT inhibition of tumor cell growth, HL-60. Here is the method: as §1, §2, §3, §4
For test [5], the system named is SMMC-7721 (human hepatoma cells). Briefly: MTT inhibition of tumor cell growth, SMMC-7721. How it is done: as §1, §2, §3, §4
Setting [6] is: Homo sapiens, SW480, 48 h, Table 6, 7-carbonyl derivatives, read-out: IC50 SW-480, 7-carbonyl derivatives.
The mark [7] stands for this setting: Homo sapiens, SW480, 48 h, Table 6, 7-hydroxyl derivatives and controls, read-out: IC50 SW-480, 7-hydroxyl derivatives.
The mark [8] stands for this setting: Homo sapiens, SW480, 48 h, Table 6, double Michael reaction acceptor derivatives, read-out: IC50 SW-480, derivatives having double Michael reaction acceptor.
[9] abbreviates: Homo sapiens, MCF7, 48 h, Table 7 (first), alkaloid derivatives.
Where [10] appears, read: Homo sapiens, SW480, 48 h, Table 7 (first), alkaloid derivatives, read-out: IC50 SW-480.
Where [11] appears, read: Homo sapiens, A549, 48 h, Table 7 (first), alkaloid derivatives.
Setting [12] is: Homo sapiens, HL-60, 48 h, Table 7 (first), alkaloid derivatives.
[13] abbreviates: Homo sapiens, SMMC-7721, 48 h, Table 7 (first), alkaloid derivatives.
Where [14] appears, read: Table 1, 7-hydroxy derivatives of S-3, 48 h.
Setting [15] is: Table 2, derivatives having potential Michael reaction acceptor, 48 h.
Setting [16] is: Table 3, single Michael reaction acceptor, modified lactonic ring, 48 h.
[17] abbreviates: Table 4, derivatives obtained by reduction of the lactonic ring, 48 h.
[18] abbreviates: Table 5, derivatives having double Michael reaction acceptor, 48 h.
The mark [19] stands for this setting: Table 7 (first), alkaloid derivatives, 48 h.

Regarding `C=C1C(=O)C23CC[C@H]1CC2[C@@]12CCC[C@@](C)(COS(=O)OC1)C2CC3=O` (stereo partly drawn) [Compound 42], the pIC50 (commonly the IC50 on a negative log10 scale, so that one unit is a factor of ten) in test [1] (setting [6]) is 5.74.

As for `C=C1C(=O)C23CC[C@H]1CC2[C@]1(COC(=O)c2cccs2)CCC[C@@](C)(COC(=O)c2cccs2)C1C[C@H]3O` (stereo partly drawn) [Compound 63], the pIC50 in test [1] (setting [7]) was 5.53.

For `C=C1C(=O)C23CC[C@H]1CC2[C@]1(COC(C)=O)CCC[C@@](C)(COC(=O)c2cccs2)C1C[C@H]3O` (stereo partly drawn) [Compound 70], the negative-log IC50 (pIC50) in test [1] (setting [7]) is 5.77.

Regarding `C=C1C(=O)C23CC[C@H]1CC2[C@]1(COC(=O)CC)CCC[C@@](C)(COC(=O)CC)C1C[C@H]3O` (stereo partly drawn) [Compound 72c], in test [1] (setting [7]), the pIC50 was 6.09.

`C=C1C(=O)C23CC[C@H]1CC2[C@]1(COC(=O)c2ccccc2)CCC[C@@](C)(COC(=O)c2ccccc2)C1C[C@H]3O` (stereo partly drawn) [Compound 72d]: in test [1] (setting [7]), the negative logarithm of the IC50 (pIC50) is 6.28.

As to `C=C1C(=O)C23CC[C@H]1CC2[C@]1(COC(=O)CC)CCC[C@@](C)(COC(=O)CC)C1CC3=O` (stereo partly drawn) [Compound 73c], the negative-log IC50 (pIC50) in test [1] (setting [6]) was 6.16.

In the case of `C=C1C(=O)C23CC[C@H]1CC2[C@]1(COC(=O)c2ccccc2)CCC[C@@](C)(COC(=O)c2ccccc2)C1CC3=O` (stereo partly drawn) [Compound 73d], the pIC50 in test [1] (setting [6]) is 6.21.

For `C=C1C(=O)C23CC[C@@H](CC2[C@]2(COC(=O)CC)CCC[C@@](C)(COC(=O)CC)C12)C(=C)C3=O` (stereo partly drawn) [Compound 74c], the pIC50 in test [1] (setting [8]) is 6.48.

Turning to `C=C1C(=O)C23CC[C@@H](CC2[C@]2(COC(=O)c4ccccc4)CCC[C@@](C)(COC(=O)c4ccccc4)C12)C(=C)C3=O` (stereo partly drawn) [Compound 74d], the pIC50 in test [1] (setting [8]) is 6.82.

Consider `C=C1C(=O)[C@]23CC[C@H]1CC2[C@@]12CCC[C@@]4(C)CN(CCO)[C@@H]1O[C@@H]3CC42` (stereo partly drawn) [Compound 82], for which the pIC50 in test [2] (Homo sapiens, MCF7, Table 7 (first), alkaloid derivatives, 48 h) was 4.99; in test [1] (Homo sapiens, SW480, Table 7 (first), alkaloid derivatives, 48 h, read-out: IC50 SW-480), 4.85; in test [3] (Homo sapiens, A549, Table 7 (first), alkaloid derivatives, 48 h), 4.73; in test [4] (Homo sapiens, HL-60, Table 7 (first), alkaloid derivatives, 48 h), 4.72; in test [5] (Homo sapiens, SMMC-7721, Table 7 (first), alkaloid derivatives, 48 h), 4.63.

As to `C=C1C(=O)[C@@]23CC[C@@H](CC2[C@@]24CCC[C@@](C)(CN(CCO[Si](C)(C)C(C)(C)C)C2)C14)C(=C)C3=O` (stereo partly drawn) [Compound 92], the pIC50 is 5.54 in test [2] (setting [9]); 5.56 in test [1] (setting [10]); 5.81 in test [3] (setting [11]); 5.86 in test [4] (setting [12]); 5.58 in test [5] (setting [13]).

As for `CC(=O)O[C@H]1C(=O)[C@@]2(C)[C@H]([C@H](OC(=O)c3ccccc3)[C@]3(O)C[C@H](OC(=O)[C@H](O)[C@@H](NC(=O)c4ccccc4)c4ccccc4)C(C)=C1C3(C)C)[C@]1(OC(C)=O)CO[C@@H]1C[C@@H]2O` [TAXOL, reference compound], the pIC50 in test [2] (Homo sapiens, MCF7, 48 h, Table 1, 7-hydroxy derivatives of S-3) is over 8.10; in test [2] (Homo sapiens, MCF7, 48 h, Table 2, derivatives having potential Michael reaction acceptor) it was over 8.10; in test [2] (Homo sapiens, MCF7, 48 h, Table 3, single Michael reaction acceptor, modified lactonic ring) it was over 8.10; in test [2] (Homo sapiens, MCF7, 48 h, Table 4, derivatives obtained by reduction of the lactonic ring), over 8.10; in test [2] (Homo sapiens, MCF7, 48 h, Table 5, derivatives having double Michael reaction acceptor) it was over 8.10; in test [2] (setting [9]), over 8.10. The pIC50 in test [1] (Homo sapiens, SW480, 48 h, Table 1, 7-hydroxy derivatives of S-3, read-out: IC50 SW-480) was over 8.10; in test [1] (Homo sapiens, SW480, 48 h, Table 2, derivatives having potential Michael reaction acceptor, read-out: IC50 SW-480), over 8.10; in test [1] (Homo sapiens, SW480, 48 h, Table 3, single Michael reaction acceptor, modified lactonic ring, read-out: IC50 SW-480), over 8.10; in test [1] (Homo sapiens, SW480, 48 h, Table 4, derivatives obtained by reduction of the lactonic ring, read-out: IC50 SW-480) it was over 8.10; in test [1] (Homo sapiens, SW480, 48 h, Table 5, derivatives having double Michael reaction acceptor, read-out: IC50 SW-480) it was over 8.10; in test [1] (setting [7]) it was over 8.10. For the same compound, the pIC50 in test [1] (setting [10]) was over 8.10; in test [3] (Homo sapiens, A549, 48 h, Table 1, 7-hydroxy derivatives of S-3), over 8.10; in test [3] (Homo sapiens, A549, 48 h, Table 2, derivatives having potential Michael reaction acceptor) it was over 8.10; in test [3] (Homo sapiens, A549, 48 h, Table 3, single Michael reaction acceptor, modified lactonic ring), over 8.10; in test [3] (Homo sapiens, A549, 48 h, Table 4, derivatives obtained by reduction of the lactonic ring), over 8.10; in test [3] (Homo sapiens, A549, 48 h, Table 5, derivatives having double Michael reaction acceptor), over 8.10. Also, the pIC50 in test [3] (setting [11]) is over 8.10; in test [4] (Homo sapiens, HL-60, 48 h, Table 1, 7-hydroxy derivatives of S-3) it was over 8.10; in test [4] (Homo sapiens, HL-60, 48 h, Table 2, derivatives having potential Michael reaction acceptor), over 8.10; in test [4] (Homo sapiens, HL-60, 48 h, Table 3, single Michael reaction acceptor, modified lactonic ring) it was over 8.10; in test [4] (Homo sapiens, HL-60, 48 h, Table 4, derivatives obtained by reduction of the lactonic ring), over 8.10; in test [4] (Homo sapiens, HL-60, 48 h, Table 5, derivatives having double Michael reaction acceptor) it was over 8.10. In addition, the negative-log IC50 (pIC50) in test [4] (setting [12]) is over 8.10; in test [5] (Homo sapiens, SMMC-7721, 48 h, Table 1, 7-hydroxy derivatives of S-3), over 8.10; in test [5] (Homo sapiens, SMMC-7721, 48 h, Table 2, derivatives having potential Michael reaction acceptor), over 8.10; in test [5] (Homo sapiens, SMMC-7721, 48 h, Table 3, single Michael reaction acceptor, modified lactonic ring) it was over 8.10; in test [5] (Homo sapiens, SMMC-7721, 48 h, Table 4, derivatives obtained by reduction of the lactonic ring), over 8.10; in test [5] (Homo sapiens, SMMC-7721, 48 h, Table 5, derivatives having double Michael reaction acceptor), over 8.10. The negative logarithm of the IC50 (pIC50) in test [5] (setting [13]) was over 8.10.

As to `[NH2][Pt]([NH2])([Cl])[Cl]` [cis-DDP, reference compound], the pIC50 in test [2] (setting [14]) is 4.80; in test [2] (setting [15]) it was 4.80; in test [2] (setting [16]), 4.80; in test [2] (setting [17]) it was 4.80; in test [2] (setting [18]), 4.80; in test [2] (setting [19]), 4.76. The pIC50 in test [1] (Table 1, 7-hydroxy derivatives of S-3, 48 h, read-out: IC50 SW-480) is 4.78; in test [1] (Table 2, derivatives having potential Michael reaction acceptor, 48 h, read-out: IC50 SW-480) it was 4.78; in test [1] (Table 3, single Michael reaction acceptor, modified lactonic ring, 48 h, read-out: IC50 SW-480) it was 4.78; in test [1] (Table 4, derivatives obtained by reduction of the lactonic ring, 48 h, read-out: IC50 SW-480) it was 4.78; in test [1] (Table 5, derivatives having double Michael reaction acceptor, 48 h, read-out: IC50 SW-480), 4.78; in test [1] (Table 6, 7-hydroxyl derivatives and controls, 48 h, read-out: IC50 SW-480, 7-hydroxyl derivatives), 4.96. The pIC50 in test [1] (Table 7 (first), alkaloid derivatives, 48 h, read-out: IC50 SW-480) is 4.92; in test [3] (setting [14]) it was 4.93; in test [3] (setting [15]) it was 4.93; in test [3] (setting [16]) it was 4.93; in test [3] (setting [17]), 4.93; in test [3] (setting [18]), 4.93. Moreover, the pIC50 in test [3] (setting [19]) was 5.04; in test [4] (setting [14]) it was 5.74; in test [4] (setting [15]), 5.74; in test [4] (setting [16]), 5.74; in test [4] (setting [17]) it was 5.74; in test [4] (setting [18]) it was 5.74. In addition, the pIC50 in test [4] (setting [19]) was 5.51; in test [5] (setting [14]), 5.05; in test [5] (setting [15]), 5.05; in test [5] (setting [16]), 5.05; in test [5] (setting [17]), 5.05; in test [5] (setting [18]), 5.05. The pIC50 in test [5] (setting [19]) was 4.99.
